Tested on: Gambusia affinis
Test: Ichthyotoxicity against Gambusia affinis at 10 ppm
Type: organism-based
Settings: in vivo; call rule not given here

CC1(C)CCC[C@]2(C)[C@H]3CC(=O)[C@]4(C)[C@@H]5C(=CC[C@H]4[C@]3(C)CC[C@@H]12)CO[C@H]5O
Activity: Toxic

CC(=O)O[C@@H]1OCC2=CC[C@H]3[C@]4(C)CC[C@H]5C(C)(C)CCC[C@]5(C)[C@H]4CC(=O)[C@]3(C)[C@H]21
Activity: Toxic

CC1(C)CCC[C@]2(C)[C@H]3CC(=O)[C@]4(C)[C@@H](C=O)C(C=O)=CC[C@H]4[C@]3(C)CC[C@@H]12
Activity: Toxic

CC(=O)O[C@H]1C[C@@H]2[C@@]3(C)CCCC(C)(C)[C@@H]3CC[C@@]2(C)[C@@H]2CC=C3CO[C@@H](O)[C@@H]3[C@@]12C
Activity: Toxic

CC1(C)CCC[C@]2(C)[C@H]3C[C@H](O)[C@]4(C)[C@@H](C=O)C(C=O)=CC[C@H]4[C@]3(C)CC[C@@H]12
Activity: Toxic

CC(=O)O[C@@H]1OCC2=CC[C@H]3[C@]4(C)CC[C@H]5C(C)(C)CCC[C@]5(C)[C@H]4C[C@H](OC(C)=O)[C@]3(C)[C@H]21 [DEOXOSCALARIN ACETATE]
Activity: Not Active

CC(=O)O[C@H]1C[C@@H]2[C@@]3(C)CCCC(C)(C)[C@@H]3CC[C@@]2(C)[C@@H]2CC=C(C=O)[C@H](C=O)[C@@]12C [SCALARADIAL]
Activity: Toxic
